Consider one compound from ChEMBL document CHEMBL6121066, “Structure-Activity Relationship Studies of DNA Methyltransferase 1 Monovalent Degraders” (J Med Chem, 2025).

The inhibition is the drop in the measured response relative to a control, in per cent. Usually DC50 stands for the concentration at which degradation of the target reaches its halfway point.

Active and inactive are the calls of the source. The rule behind the calls is not given here.

One experiment has as its system MDA-MB-468. The experiment in a line: Effect on DNMT1 mRNA level in human MDA-MB-468 cells at 500 nM incubated for 24 hrs by RT-qPCR analysis. The experiment is classed as functional, cell-based. (In qPCR the cycle at which signal appears reflects the starting amount.)
In experiment [1] the test system is HCT-116. Briefly: Induction of molecular glue effect mediated DNMT1 degradation in human HCT-116 cells assessed as reduction in DNMT1 protein level at 100 nM preincubated with MLN4924 for 2 hrs followed by compound addition and measured after 24 hrs by Western blot analysis. The experiment is classed as cell-based. A general note: Immunoblotting shows a protein as a band on a membrane.

Experiment [2] deals with HCT-116. The experiment in a line: Induction of molecular glue effect mediated DNMT1 degradation in human HCT-116 cells assessed as reduction in DNMT1 protein level at 100 nM preincubated with heclin for 2 hrs followed by compound addition and measured after 24 hrs by Western blot analysis. Type of experiment: cell-based.
For experiment [3], the system named is HCT-116. Briefly: Induction of molecular glue effect mediated DNMT1 degradation in human HCT-116 cells assessed as reduction in DNMT1 protein level at 100 nM preincubated with lysosome inhibitor CQ for 2 hrs followed by compound addition and measured after 24 hrs by Western blot analysis. The experiment is classed as cell-based.
Experiment [4] deals with T1, Histone-arginine methyltransferase CARM1 (Homo sapiens) (UniProt Q86X55).
T1 sequence (whole entry): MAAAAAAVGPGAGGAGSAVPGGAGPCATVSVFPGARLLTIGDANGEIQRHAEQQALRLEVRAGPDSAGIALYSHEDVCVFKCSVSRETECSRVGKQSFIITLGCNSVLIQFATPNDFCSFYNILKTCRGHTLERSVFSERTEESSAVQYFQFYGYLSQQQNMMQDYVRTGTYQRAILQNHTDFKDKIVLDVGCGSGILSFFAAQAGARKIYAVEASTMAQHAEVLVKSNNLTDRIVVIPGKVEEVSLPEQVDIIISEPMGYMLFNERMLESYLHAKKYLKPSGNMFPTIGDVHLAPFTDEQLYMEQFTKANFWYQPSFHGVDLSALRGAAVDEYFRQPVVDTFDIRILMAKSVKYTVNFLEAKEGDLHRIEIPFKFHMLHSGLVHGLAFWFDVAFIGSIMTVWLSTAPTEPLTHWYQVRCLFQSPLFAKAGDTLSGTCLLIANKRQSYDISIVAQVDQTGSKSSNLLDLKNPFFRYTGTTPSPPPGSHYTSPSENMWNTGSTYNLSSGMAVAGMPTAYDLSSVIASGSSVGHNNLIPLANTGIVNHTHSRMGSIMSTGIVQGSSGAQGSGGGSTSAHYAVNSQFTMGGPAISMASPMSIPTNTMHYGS
The experiment in a line: Inhibition of human PRMT4 using histone H3 and SAM as substrate at 1 uM by radioisotope-based MT HotSpot assay relative to control.

Experiment [5] concerns HCT-116. Briefly: Induction of molecular glue effect mediated DNMT1 degradation in human HCT-116 cells assessed as reduction in DNMT1 protein level at 500 nM measured after 2 hrs by Western blot analysis relative to control. Type of experiment: cell-based. More on the design: scale not given: the % may be the effect or the level left.
The subject of experiment [6] is HCT-116. Briefly: Induction of molecular glue effect mediated DNMT1 degradation in human HCT-116 cells assessed as reduction in DNMT1 protein level at 500 nM measured after 24 hrs by Western blot analysis relative to control. The experiment is classed as cell-based. Set-up: scale not given: the % may be the effect or the level left.
Experiment [7] relates to HCT-116. The experiment in a line: Induction of molecular glue effect mediated DNMT1 degradation in human HCT-116 cells transfected with UHRF1 siRNA assessed as reduction in DNMT1 protein level at 100 nM measured after 24 hrs by Western blot analysis. The experiment is classed as cell-based.
Experiment [8] can be described thus: Induction of molecular glue effect mediated DNMT1 degradation in human NCI-H1299 cells assessed as reduction in DNMT1 protein level incubated for 24 hrs by Western blot analysis. To be noted: NCI-H1299, 24 h. Type of experiment: cell-based.
For experiment [9], the system named is HCT-116. The experiment in a line: Induction of molecular glue effect mediated DNMT1 degradation in human HCT-116 cells transfected with WWP1 siRNA assessed as reduction in DNMT1 protein level at 100 nM measured after 24 hrs by Western blot analysis. Type of experiment: cell-based.
Experiment [10] has as its system HCT-116. Briefly: (§1) Induction of molecular glue effect mediated DNMT1 degradation in human HCT-116 cells assessed as reduction in DNMT1 protein level incubated for 24 hrs by Western blot analysis. Type of experiment: cell-based.
Experiment [11] can be described thus: as §1. Type of experiment: cell-based. The conditions noted are these: HCT-116, 24 h.
The target of experiment [12] is T2, Histone-lysine N-methyltransferase EHMT2 (Homo sapiens) (UniProt Q96KQ7).
T2 sequence (whole entry): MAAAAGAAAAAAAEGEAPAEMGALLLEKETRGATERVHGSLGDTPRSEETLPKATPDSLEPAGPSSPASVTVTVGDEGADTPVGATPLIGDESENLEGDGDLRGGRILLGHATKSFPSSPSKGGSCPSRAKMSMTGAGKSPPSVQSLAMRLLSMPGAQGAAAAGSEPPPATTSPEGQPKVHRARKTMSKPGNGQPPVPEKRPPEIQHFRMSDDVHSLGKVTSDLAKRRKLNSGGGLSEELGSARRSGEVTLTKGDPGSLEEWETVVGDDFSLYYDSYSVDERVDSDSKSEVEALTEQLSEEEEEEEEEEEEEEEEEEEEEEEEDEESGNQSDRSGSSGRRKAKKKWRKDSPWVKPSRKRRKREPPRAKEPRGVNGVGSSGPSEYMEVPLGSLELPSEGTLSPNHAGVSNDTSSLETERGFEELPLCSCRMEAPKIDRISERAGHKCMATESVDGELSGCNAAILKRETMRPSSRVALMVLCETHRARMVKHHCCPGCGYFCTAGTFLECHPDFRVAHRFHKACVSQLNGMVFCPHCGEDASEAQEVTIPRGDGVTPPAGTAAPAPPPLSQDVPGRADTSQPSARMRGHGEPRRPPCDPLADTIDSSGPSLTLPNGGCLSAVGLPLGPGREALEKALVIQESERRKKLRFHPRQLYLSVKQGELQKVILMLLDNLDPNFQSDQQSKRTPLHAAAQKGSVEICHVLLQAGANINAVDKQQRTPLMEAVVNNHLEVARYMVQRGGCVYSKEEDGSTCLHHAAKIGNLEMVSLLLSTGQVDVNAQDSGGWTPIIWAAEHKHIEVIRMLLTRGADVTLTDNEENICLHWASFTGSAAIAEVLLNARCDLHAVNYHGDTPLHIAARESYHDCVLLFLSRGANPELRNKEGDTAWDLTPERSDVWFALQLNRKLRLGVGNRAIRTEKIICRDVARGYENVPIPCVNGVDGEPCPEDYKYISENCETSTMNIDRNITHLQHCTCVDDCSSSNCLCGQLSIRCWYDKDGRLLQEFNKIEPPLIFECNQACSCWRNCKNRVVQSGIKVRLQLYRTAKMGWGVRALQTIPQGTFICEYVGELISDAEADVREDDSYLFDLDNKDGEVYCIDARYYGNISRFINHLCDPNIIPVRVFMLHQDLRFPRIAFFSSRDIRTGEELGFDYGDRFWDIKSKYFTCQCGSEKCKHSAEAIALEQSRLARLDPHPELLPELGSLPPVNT
The experiment in a line: Inhibition of human G9a using histone H3 and SAM as substrate at 1 uM by radioisotope-based MT HotSpot assay relative to control.

Experiment [13] deals with HCT-116. The experiment in a line: Effect on DNMT1 mRNA level in human HCT-116 cells at 500 nM incubated for 24 hrs by RT-qPCR analysis. The experiment is classed as functional, cell-based.

On to `CCc1c(C#N)c(SC(C(N)=O)c2ccccc2)nc(N(C)CC(=O)NC)c1C#N` (centres undefined), for which the outcome in the experiment with MDA-MB-468 and in the experiment with HCT-116 [13] was inactive. The result in the experiment on HCT-116 [1], with HCT-116 [3] and with HCT-116 [9] was Active. Besides, the Activity result in the experiment with HCT-116 [2] was “Not active; Partial Rescue Of Degradation Observed”; in the experiment on HCT-116 [5], 50%; in the experiment on HCT-116 [6], 100%; in the experiment with HCT-116 [7] it was “Not active; Partial Rescue Of Degradation Observed”; in the experiment with HCT-116 [10], “Dose-dependent-effect”. Also, the inhibition in experiment [4] and in [12] was less than 20% in each case. In addition, the results for the 50% degradation concentration (DC50) in experiment [8] and in experiment [11] were 86 nM and 35 nM, respectively.
